{"source": "patent US20080114080A1", "about": "“Compositions and Methods for the Treatment of Cystic Fibrosis and other Pulmonary Disorders” (priority 2006, published 2008)", "key": {"[1]": {"conditions": "cited from earlier work"}, "[2]": {"conditions": "recent report; cited from earlier work"}, "[3]": {"target": "mutant forms (ΔF508) of CFTR (Homo sapiens, UniProt P13569, DEL508-508)", "sequence (P13569 with tags, fused parts or gaps DEL508-508)": "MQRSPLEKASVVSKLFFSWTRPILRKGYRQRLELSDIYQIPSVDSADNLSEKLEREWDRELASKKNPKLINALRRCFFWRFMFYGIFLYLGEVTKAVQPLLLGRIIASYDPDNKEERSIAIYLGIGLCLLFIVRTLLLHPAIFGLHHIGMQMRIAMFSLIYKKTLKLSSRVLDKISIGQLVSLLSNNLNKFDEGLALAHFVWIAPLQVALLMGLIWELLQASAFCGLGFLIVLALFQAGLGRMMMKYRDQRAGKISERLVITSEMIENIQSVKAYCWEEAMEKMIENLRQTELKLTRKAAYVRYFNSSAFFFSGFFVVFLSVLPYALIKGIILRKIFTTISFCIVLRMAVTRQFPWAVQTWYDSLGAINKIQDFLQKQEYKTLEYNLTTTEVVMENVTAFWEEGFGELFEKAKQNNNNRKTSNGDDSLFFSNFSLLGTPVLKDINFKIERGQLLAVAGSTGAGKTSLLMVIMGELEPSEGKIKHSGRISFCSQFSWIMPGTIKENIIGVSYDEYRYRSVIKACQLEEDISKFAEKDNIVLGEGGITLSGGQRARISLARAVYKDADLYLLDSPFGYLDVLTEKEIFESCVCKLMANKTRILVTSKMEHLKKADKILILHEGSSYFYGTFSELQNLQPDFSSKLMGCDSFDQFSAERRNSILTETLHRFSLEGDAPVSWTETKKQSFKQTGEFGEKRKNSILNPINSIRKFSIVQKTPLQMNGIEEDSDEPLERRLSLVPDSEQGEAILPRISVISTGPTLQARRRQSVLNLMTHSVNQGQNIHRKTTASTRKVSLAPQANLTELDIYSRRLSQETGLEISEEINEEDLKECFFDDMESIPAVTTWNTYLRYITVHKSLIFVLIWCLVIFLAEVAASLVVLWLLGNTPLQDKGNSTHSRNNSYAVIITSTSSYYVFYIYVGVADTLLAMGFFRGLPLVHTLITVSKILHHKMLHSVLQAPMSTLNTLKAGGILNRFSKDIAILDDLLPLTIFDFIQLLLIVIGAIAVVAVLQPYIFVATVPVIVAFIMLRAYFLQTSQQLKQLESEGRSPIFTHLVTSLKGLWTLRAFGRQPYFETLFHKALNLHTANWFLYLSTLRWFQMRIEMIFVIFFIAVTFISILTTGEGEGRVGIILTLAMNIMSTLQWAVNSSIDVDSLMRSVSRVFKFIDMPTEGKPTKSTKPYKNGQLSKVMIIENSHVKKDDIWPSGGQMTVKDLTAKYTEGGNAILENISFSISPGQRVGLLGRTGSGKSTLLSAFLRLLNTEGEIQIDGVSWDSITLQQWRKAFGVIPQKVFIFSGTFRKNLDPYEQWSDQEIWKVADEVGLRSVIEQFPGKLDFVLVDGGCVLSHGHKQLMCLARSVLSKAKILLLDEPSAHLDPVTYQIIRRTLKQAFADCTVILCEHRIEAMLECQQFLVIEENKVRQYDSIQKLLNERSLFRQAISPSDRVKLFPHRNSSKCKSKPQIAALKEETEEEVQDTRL", "conditions": "cited from earlier work"}, "[4]": {"test_system": "rat colon epithelial cells", "conditions": "cited from earlier work"}, "[5]": {"test_system": "chemokine receptors (CXCR2/b)", "test": "Cl- transport/efflux in Calu-3 cells, IL-8 via chemokine receptors", "type": "cell-based, human"}, "C5aR (CD88)": {"target": "T1, C5aR (CD88) (Homo sapiens, UniProt P21730)", "T1 construct": "endogenous in cells; host or cells: Calu-3 (ATCC HTB-55)", "T1 sequence (P21730 1-350)": "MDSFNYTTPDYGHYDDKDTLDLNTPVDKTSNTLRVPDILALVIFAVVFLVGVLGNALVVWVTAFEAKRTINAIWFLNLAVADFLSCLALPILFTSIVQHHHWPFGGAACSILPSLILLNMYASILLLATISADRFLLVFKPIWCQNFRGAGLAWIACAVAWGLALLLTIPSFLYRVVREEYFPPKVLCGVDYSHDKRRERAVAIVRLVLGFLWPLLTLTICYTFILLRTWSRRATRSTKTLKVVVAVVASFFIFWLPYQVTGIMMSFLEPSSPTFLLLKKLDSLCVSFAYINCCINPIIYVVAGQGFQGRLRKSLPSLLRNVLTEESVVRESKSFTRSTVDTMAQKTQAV", "test": "Cl- efflux in Calu-3 cells, C5a via C5aR", "type": "cell-based"}, "[6]": {"test_system": "adenylyl cyclase activity", "test": "adenylyl cyclase activity in Calu-3 cells", "type": "cell-based, human", "conditions": "FIG. 6"}}, "note": "Read-outs that look alike come from different tables or passages of the source.", "data": [{"molecule": "CNc1ccc2oc(C[C@H]3O[C@@]4(CC[C@H]3C)O[C@H]([C@H](C)C(=O)c3ccc[nH]3)[C@H](C)C[C@H]4C)nc2c1C(=O)O", "note": "[A23187, calcimycin]", "values": [{"measurement": "Solubility", "setting": "[1]; in DMSO", "result": 50, "unit": "mg/mL"}, {"measurement": "Solubility", "setting": "[1]; in EtOH", "result": 5, "unit": "mg/mL"}]}, {"molecule": "CCCn1c(=O)c2[nH]c(C3CCCC3)nc2n(CCC)c1=O", "note": "[CPX, 8-cyclo-pentyl-1,3-dipropylxanthine]", "values": [{"measurement": "efficacy in treating mild cystic fibrosis", "setting": "[2]", "result": "somewhat effective"}]}, {"molecule": "CC(C)Cn1c(=O)n(C)c(=O)c2[nH]cnc21", "note": "[IBMX]", "values": [{"measurement": "activity of mutant CFTR, chloride transport function", "setting": "[3]", "result": "able to stimulate some activity"}]}, {"molecule": "O=c1c(O)c(-c2ccc(O)c(O)c2)oc2cc(O)cc(O)c12", "note": "[quercetin]", "values": [{"measurement": "Cl- secretion", "setting": "[4]", "result": "induce Cl^− secretion"}]}, {"molecule": "IL-8: chemokine released on activation of innate immunity, activates CXCR2", "values": [{"measurement": "basal levels of Cl- transport", "setting": "[5]; Calu-3 cells, via CXCR2/b, FIG. 9", "result": "inhibits"}, {"measurement": "cAMP dependent Cl- efflux", "setting": "[5]; FIG. 10", "result": "inhibits"}]}, {"molecule": "C5a: proinflammatory anaphylatoxin peptide generated during complement activation, acts through C5aR (protein, UniProt P01031 678-751, looked up, C5a anaphylatoxin) C5a anaphylatoxin: TLQKKIEEIAAKYKHSVVKKCCYDGACVNNDETCEQRAARISLGPRCIKAFTECCVVASQLRANISHKDMQLGR", "values": [{"measurement": "basal Cl- efflux", "setting": "C5aR (CD88); Calu-3 cells, via C5aR (CD88), FIG. 7", "result": "inhibits"}, {"measurement": "cAMP dependent Cl- efflux", "setting": "C5aR (CD88); FIG. 8", "result": "inhibits"}, {"measurement": "adenylyl cyclase activity", "setting": "[6]", "result": "inhibits"}]}]}
